Literature values, collected in US20130023590A1, “AQUEOUS COMPOSITIONS COMPRISING RESVERATROL AND METHODS FOR MAKING THEM” (priority 2011, published 2013).
Like-named read-outs stand apart in the source and are kept apart here.

Columns and labels:
[1] = for solubility in water: with heating
[2] = tested on: yeast; details: in the absence of caloric restriction
[3] = oral, humans

SMILES: Oc1ccc(C=Cc2cc(O)cc(O)c2)cc1 [resveratrol, 3,4′,5-trihydroxystilbene]
- solubility in organic solvents ([1]; ethanol, dimethyl sulfoxide or dimethyl formamide): approximately 65 mg/ml
- solubility in water ([1]; Sigma-Aldrich Product Information Sheet): 3 mg/100 ml
- solubility in water ([1]; same value restated in ppm): 30 ppm
- extension of replicative lifespan of yeast [2]: 70%
- bioavailability [3]: very low
